For this experiment, the system named is HCT116 cells. The experiment in a line: pH-dependent cellular uptake (flow cytometry, fluorescence). It is filed as cell-based, human. Particulars: fluorescence and flow cytometry. The method, then: HCT116 cells were exposed to PMNs, InS-NPs and Ce6 at different pHs to verify their cellular uptake respectively. The cells were incubated for 2 h, washed, harvested, and re-suspended with DPBS. In vitro cellular uptake was quantified using a flow cytometer (Beckman, San Jose, Calif., USA). For each sample 10,000 cells (gated events) were counted, and free Ce6 fluorescence was detected with logarithmic settings (FL4; λem=670 nm). Cells were counted as positive if their fluorescence (FL4) was higher than that of cells from an untreated cell suspension. Each experiment was analyzed statistically using the CXP Analysis Program.
The tumor cellular uptake of PMNs was monitored at different pH conditions (pH 7.4 and 6.8) using a KODAK In vivo Image Station (Image Station 4000 MM; Kodak, New Haven, Conn., USA) and a flow cytometer (Beckman, San Jose, Calif., USA). HCT116 cells (1×10^5 cells/mL) were incubated with each sample for 2 h in RPMI-1640 medium (pH 7.4 or 6.8, with 1% penicillin-streptomycin) at 37° C. and then analyzed. To ameliorate photobleaching during microscope observation, a drop of anti-fade mounting solution (5% N-propyl gallate, 47.5% glycerol, and 47.5% Tris-HCl, pH 8.4) was added to the cells.
A general note: Flow cytometry measures light scatter and fluorescence of single cells or particles in a stream.

Regarding chlorin E6 [Ce6], the “cellular uptake at pH 6.8 versus pH 7.4” value is “not affected by changes in pH”.
